From US9006451B1, “2-anilinonicotinyl based chalcones useful as potential anticancer agents and process for preparation thereof” (Council of Scientific and Industrial Research, priority 2013, dated 2015)
Where two headings read alike, the source gives them in different places.

Tests used:
Format in all cases: cell-based
PC-3 = assay: NCI 60 human tumor cell line screen (SRB): PC-3; conditions: PC-3, Prostate, 48 hours, read-out: GI50 values (μM conc.)
Method: (§1) The in vitro anticancer activity studies for these chalcone analogues were carried out at the National Cancer Institute, USA.
(§2) The chalcone compounds have been tested at NCI, USA, against sixty human tumor cell lines derived from nine cancer types (leukemia, non-small cell lung cancer, colon cancer, CNS cancer, melanoma cancer, ovarian cancer, renal cancer, prostate cancer and breast cancer). For these compounds results are expressed as growth inhibition (GI50) values as per NCI protocol.
(§3) We describe here the development and implementation of a pilot-scale, in vitro, anticancer drug screen utilizing a panel of 60 human tumor cell lines organized into subpanels representing leukemia, melanoma, and cancers of the lung, colon, kidney, ovary, and central nervous system. The ultimate goal of this disease-oriented screen is to facilitate the discovery of new compounds with potential cell line-specific and/or subpanel-specific antitumor activity. In the current screening protocol, each cell line is inoculated onto microtiter plates, then preincubated for 28 hours. Subsequently, test agents are added in five 10-fold dilutions and the culture is incubated for an additional 48 hours. For each test agent, a dose-response profile is generated. End-point determinations of the cell viability or cell growth are performed by in situ fixation of cells, followed by staining with a protein-binding dye, sulforhodamine B (SRB). The SRB binds to the basic amino acids of cellular macromolecules; the solubilized stain is measured spectrophotometrically to determine relative cell growth or viability in treated and untreated cells.

NCI/ADR-RES = assay: NCI 60 human tumor cell line screen (SRB): NCI/ADR-RES; conditions: Ovarian, 48 hours, read-out: GI50 values (μM conc.)
Method: as §1, §2, §3

MOLT-4 = assay: NCI 60 human tumor cell line screen (SRB): MOLT-4; conditions: MOLT-4, Leukemia, 48 hours, read-out: GI50 values (μM conc.)
Method: as §1, §2, §3

A549/ATCC = assay: NCI 60 human tumor cell line screen (SRB): A549/ATCC; conditions: Non-small cell lung, 48 hours, read-out: GI50 values (μM conc.)
Method: as §1, §2, §3

CCRF-CEM = assay: NCI 60 human tumor cell line screen (SRB): CCRF-CEM; conditions: Leukemia, 48 hours, read-out: GI50 values (μM conc.)
Method: as §1, §2, §3

NCI-H460 = assay: NCI 60 human tumor cell line screen (SRB): NCI-H460; conditions: NCI-H460, Non-small cell lung, 48 hours, read-out: GI50 values (μM conc.)
Method: as §1, §2, §3

OVCAR-4 = assay: NCI 60 human tumor cell line screen (SRB): OVCAR-4; conditions: OVCAR-4, Ovarian, 48 hours, read-out: GI50 values (μM conc.)
Method: as §1, §2, §3

RPMI-8226 = assay: NCI 60 human tumor cell line screen (SRB): RPMI-8226; conditions: RPMI-8226, Leukemia, 48 hours, read-out: GI50 values (μM conc.)
Method: as §1, §2, §3

UACC-62 = assay: NCI 60 human tumor cell line screen (SRB): UACC-62; conditions: UACC-62, Melanoma, 48 hours, read-out: GI50 values (μM conc.)
Method: as §1, §2, §3

CAKI-1 = assay: NCI 60 human tumor cell line screen (SRB): CAKI-1; conditions: CAKI-1, Renal, 48 hours, read-out: GI50 values (μM conc.)
Method: as §1, §2, §3

HOP-92 = assay: NCI 60 human tumor cell line screen (SRB): HOP-92; conditions: HOP-92, Non-small cell lung, 48 hours, read-out: GI50 values (μM conc.)
Method: as §1, §2, §3

SK-MEL-2 = assay: NCI 60 human tumor cell line screen (SRB): SK-MEL-2; conditions: SK-MEL-2, Melanoma, 48 hours, read-out: GI50 values (μM conc.)
Method: as §1, §2, §3

TK-10 = assay: NCI 60 human tumor cell line screen (SRB): TK-10; conditions: TK-10, Renal, 48 hours, read-out: GI50 values (μM conc.)
Method: as §1, §2, §3

NCI-H226 = assay: NCI 60 human tumor cell line screen (SRB): NCI-H226; conditions: NCI-H226, Non-small cell lung, 48 hours, read-out: GI50 values (μM conc.)
Method: as §1, §2, §3

MCF7 = assay: NCI 60 human tumor cell line screen (SRB): MCF7
Method: as §1, §2, §3

NCI-H23 = assay: NCI 60 human tumor cell line screen (SRB): NCI-H23; conditions: NCI-H23, Non-small cell lung, 48 hours, read-out: GI50 values (μM conc.)
Method: as §1, §2, §3

SW-620 = assay: NCI 60 human tumor cell line screen (SRB): SW-620; conditions: SW-620, Colon, 48 hours, read-out: GI50 values (μM conc.)
Method: as §1, §2, §3

SF-268 = assay: NCI 60 human tumor cell line screen (SRB): SF-268; conditions: SF-268, CNS, 48 hours, read-out: GI50 values (μM conc.)
Method: as §1, §2, §3

HOP-62 = assay: NCI 60 human tumor cell line screen (SRB): HOP-62; conditions: HOP-62, Non-small cell lung, 48 hours, read-out: GI50 values (μM conc.)
Method: as §1, §2, §3

DU-145 = assay: NCI 60 human tumor cell line screen (SRB): DU-145; conditions: DU-145, Prostate, 48 hours, read-out: GI50 values (μM conc.)
Method: as §1, §2, §3

OVCAR-3 = assay: NCI 60 human tumor cell line screen (SRB): OVCAR-3; conditions: OVCAR-3, Ovarian, 48 hours, read-out: GI50 values (μM conc.)
Method: as §1, §2, §3

UO-31 = assay: NCI 60 human tumor cell line screen (SRB): UO-31; conditions: UO-31, Renal, 48 hours, read-out: GI50 values (μM conc.)
Method: as §1, §2, §3

U251 = assay: NCI 60 human tumor cell line screen (SRB): U251; conditions: U-251, U251, CNS, 48 hours, read-out: GI50 values (μM conc.)
Method: as §1, §2, §3

SNB-19 = assay: NCI 60 human tumor cell line screen (SRB): SNB-19; conditions: SNB-19, CNS, 48 hours, read-out: GI50 values (μM conc.)
Method: as §1, §2, §3

SN12C = assay: NCI 60 human tumor cell line screen (SRB): SN12C; conditions: Renal, 48 hours, read-out: GI50 values (μM conc.)
Method: as §1, §2, §3

NCI-H322M = assay: NCI 60 human tumor cell line screen (SRB): NCI-H322M; conditions: Non-small cell lung, 48 hours, read-out: GI50 values (μM conc.)
Method: as §1, §2, §3

HCC-2998 = assay: NCI 60 human tumor cell line screen (SRB): HCC-2998; conditions: HCC-2998, Colon, 48 hours, read-out: GI50 values (μM conc.)
Method: as §1, §2, §3

SK-MEL-5 = assay: NCI 60 human tumor cell line screen (SRB): SK-MEL-5; conditions: SK-MEL-5, Melanoma, 48 hours, read-out: GI50 values (μM conc.)
Method: as §1, §2, §3

RXF 393 = assay: NCI 60 human tumor cell line screen (SRB): RXF 393; conditions: RXF 393, Renal, 48 hours, read-out: GI50 values (μM conc.)
Method: as §1, §2, §3

[1] = MCF7, Breast, 48 hours, SRB, read-out: GI50 values (μM conc.)
[2] = MCF7, comparison table, read-out: GI50 μM in MCF7

`COc1cc(Nc2ncccc2/C=C/C(=O)c2cc(OC)c(OC)c(OC)c2)cc(OC)c1OC` [6v, (E)-1-(3,4,5-Trimethoxyphenyl)-3-(2-(3,4,5-trimethoxyphenylamino)pyridin-3-yl)prop-2-en-1-one] showed a GI50 (PC-3) of 7.81 µM, a GI50 (NCI/ADR-RES) of 4.44 µM and a GI50 (MOLT-4) of 6.72 µM. It also gave a GI50 (A549/ATCC) of 4.21 µM, a GI50 (CCRF-CEM) of 7.08 µM and a GI50 (NCI-H460) of 3.61 µM. It also gave a GI50 (OVCAR-4) of 9.78 µM, a GI50 (RPMI-8226) of 6.83 µM and a GI50 (UACC-62) of 4.96 µM. It also gave a GI50 (CAKI-1) of 4.01 µM, a GI50 (HOP-92) of 0.94 µM and a GI50 (SK-MEL-2) of 8 µM. The GI50 (TK-10) was 1.55 µM, the GI50 (NCI-H226) was 10.8 µM and the GI50 (MCF7; [1]) was 3.97 µM. The GI50 (MCF7; [2]) was 3.97 µM, the GI50 (NCI-H23) was 10.2 µM and the GI50 (SW-620) was 4.81 µM. It also gave a GI50 (SF-268) of 8.19 µM, a GI50 (HOP-62) of 12.1 µM and a GI50 (DU-145) of 6.22 µM. It also gave a GI50 (OVCAR-3) of 7.45 µM, a GI50 (UO-31) of 5.09 µM and a GI50 (U251) of 4.1 µM. It also gave a GI50 (SNB-19) of 6.8 µM, a GI50 (SN12C) of 5.1 µM and a GI50 (NCI-H322M) of 21.1 µM. The GI50 (HCC-2998) was 7.74 µM, the GI50 (SK-MEL-5) was 4.17 µM and the GI50 (RXF 393) was 5.22 µM.

`COc1cc(C(=O)/C=C/c2cccnc2Nc2ccccc2)cc(OC)c1OC` [6a, (E)-3-(2-(Phenylamino)pyridin-3-yl)-1-(3,4,5-trimethoxyphenyl)prop-2-en-1-one] showed a GI50 (PC-3) of 1.1 µM, a GI50 (NCI/ADR-RES) of 1.03 µM and a GI50 (MOLT-4) of 2.68 µM. The GI50 (A549/ATCC) was 1.3 µM, the GI50 (CCRF-CEM) was 0.32 µM and the GI50 (NCI-H460) was 1.8 µM. The GI50 (OVCAR-4) was 1.45 µM, the GI50 (RPMI-8226) was 0.35 µM and the GI50 (UACC-62) was 1.29 µM. The GI50 (CAKI-1) was 1.16 µM, the GI50 (HOP-92) was 0.39 µM and the GI50 (SK-MEL-2) was 1.66 µM. For the same compound, the GI50 (TK-10) was 1.82 µM, the GI50 (NCI-H226) was 1.23 µM and the GI50 (MCF7; [1]) was 0.35 µM. The GI50 (MCF7; [2]) was 0.35 µM, the GI50 (NCI-H23) was 1.43 µM and the GI50 (SW-620) was 0.42 µM. The GI50 (SF-268) was 1.55 µM, the GI50 (HOP-62) was 0.65 µM and the GI50 (DU-145) was 0.72 µM. For the same compound, the GI50 (OVCAR-3) was 0.42 µM, the GI50 (UO-31) was 1.19 µM and the GI50 (U251) was 1.12 µM. The GI50 (SNB-19) was 1.48 µM, the GI50 (SN12C) was 1.21 µM and the GI50 (NCI-H322M) was 1.9 µM. The GI50 (HCC-2998) was 1.18 µM, the GI50 (SK-MEL-5) was 1.34 µM and the GI50 (RXF 393) was 1.12 µM.

`COc1ccc(Nc2ncccc2/C=C/C(=O)c2cc(OC)c(OC)c(OC)c2)cc1` [6h, (E)-3-(2-(4-Methoxyphenylamino)pyridin-3-yl)-1-(3,4,5-trimethoxyphenyl)prop-2-en-1-one] showed a GI50 (PC-3) of 2.82 µM, a GI50 (NCI/ADR-RES) of 2.23 µM and a GI50 (MOLT-4) of 2.09 µM. It also gave a GI50 (CCRF-CEM) of 0.5 µM, a GI50 (NCI-H460) of 2.01 µM and a GI50 (OVCAR-4) of 1.62 µM. The GI50 (RPMI-8226) was 1.08 µM, the GI50 (UACC-62) was 1.56 µM and the GI50 (CAKI-1) was 1.52 µM. The GI50 (HOP-92) was 1.59 µM, the GI50 (SK-MEL-2) was 1.47 µM and the GI50 (NCI-H226) was 1.37 µM. The GI50 (MCF7; [1]) was 0.69 µM, the GI50 (MCF7; [2]) was 0.69 µM and the GI50 (NCI-H23) was 1.72 µM. For the same compound, the GI50 (SW-620) was 1.2 µM, the GI50 (SF-268) was 1.77 µM and the GI50 (HOP-62) was 1.78 µM. For the same compound, the GI50 (DU-145) was 1.59 µM, the GI50 (OVCAR-3) was 1.64 µM and the GI50 (UO-31) was 1.12 µM. The GI50 (U251) was 1.27 µM, the GI50 (SNB-19) was 2.14 µM and the GI50 (SN12C) was 1.56 µM. The GI50 (NCI-H322M) was 2.13 µM, the GI50 (HCC-2998) was 1.68 µM and the GI50 (SK-MEL-5) was 1.39 µM. It also gave a GI50 (RXF 393) of 1.49 µM.
